Results reported in paper PMC6783830 (Viruses, 2019).
Read-outs that look alike come from different tables or passages of the source.

Key:
[1] = molecular target: VSV RdRp complex (L and P proteins on N–RNA) (Vesicular stomatitis Indiana virus, UniProt P03523); format: biochemical
CHPV [2] = test system: CHPV
VSV [3] = assay: microbe, parasite or virus in culture; conditions: Vesicular stomatitis virus, BHK-21, in Mesocricetus auratus, 24 h, read-out: Anti-VSV Activity IC50 (VSV-induced metabolic shut-down)
HPIV-3 [4] = test system: HPIV-3
in vitro [5] = conditions: human
HPIV-3 [6] = assay: microbe, parasite or virus in culture; conditions: Human respirovirus 3, HeLa, 72 h, read-out: Anti-HPIV-3 activity IC50
CHPV [7] = assay: microbe, parasite or virus in culture; conditions: Chandipura virus, BHK-21, in Mesocricetus auratus, 24 h, read-out: Anti-CHPV Activity IC50 (CHPV-induced metabolic shut-down)
in vitro [8] = conditions: hamster
HeLa cells [9] = test system: HeLa cells
VSV [10] = assay: microbe, parasite or virus in culture; conditions: Vesicular stomatitis virus, HeLa, in Homo sapiens, 65 h, read-out: Anti-VSV Activity IC50 (VSV-induced metabolic shut-down)
RABV [11] = test system: RABV
RABV [12] = assay: microbe, parasite or virus in culture; conditions: Lyssavirus rabies, in mouse/rat NG108-15, 48 h, read-out: Anti-RABV activity IC50 (RABV gene expression, luciferase)
VSV RNP = VSV RNP (Vesicular stomatitis Indiana virus, UniProt P03523); assay: biochemical; format: biochemical; conditions: for inhibition at 20 µM: read-out: % Inhibition mRNA Synthesis (In vitro Transcription)
Chain of VSV RNP (P03523 whole entry, looked up): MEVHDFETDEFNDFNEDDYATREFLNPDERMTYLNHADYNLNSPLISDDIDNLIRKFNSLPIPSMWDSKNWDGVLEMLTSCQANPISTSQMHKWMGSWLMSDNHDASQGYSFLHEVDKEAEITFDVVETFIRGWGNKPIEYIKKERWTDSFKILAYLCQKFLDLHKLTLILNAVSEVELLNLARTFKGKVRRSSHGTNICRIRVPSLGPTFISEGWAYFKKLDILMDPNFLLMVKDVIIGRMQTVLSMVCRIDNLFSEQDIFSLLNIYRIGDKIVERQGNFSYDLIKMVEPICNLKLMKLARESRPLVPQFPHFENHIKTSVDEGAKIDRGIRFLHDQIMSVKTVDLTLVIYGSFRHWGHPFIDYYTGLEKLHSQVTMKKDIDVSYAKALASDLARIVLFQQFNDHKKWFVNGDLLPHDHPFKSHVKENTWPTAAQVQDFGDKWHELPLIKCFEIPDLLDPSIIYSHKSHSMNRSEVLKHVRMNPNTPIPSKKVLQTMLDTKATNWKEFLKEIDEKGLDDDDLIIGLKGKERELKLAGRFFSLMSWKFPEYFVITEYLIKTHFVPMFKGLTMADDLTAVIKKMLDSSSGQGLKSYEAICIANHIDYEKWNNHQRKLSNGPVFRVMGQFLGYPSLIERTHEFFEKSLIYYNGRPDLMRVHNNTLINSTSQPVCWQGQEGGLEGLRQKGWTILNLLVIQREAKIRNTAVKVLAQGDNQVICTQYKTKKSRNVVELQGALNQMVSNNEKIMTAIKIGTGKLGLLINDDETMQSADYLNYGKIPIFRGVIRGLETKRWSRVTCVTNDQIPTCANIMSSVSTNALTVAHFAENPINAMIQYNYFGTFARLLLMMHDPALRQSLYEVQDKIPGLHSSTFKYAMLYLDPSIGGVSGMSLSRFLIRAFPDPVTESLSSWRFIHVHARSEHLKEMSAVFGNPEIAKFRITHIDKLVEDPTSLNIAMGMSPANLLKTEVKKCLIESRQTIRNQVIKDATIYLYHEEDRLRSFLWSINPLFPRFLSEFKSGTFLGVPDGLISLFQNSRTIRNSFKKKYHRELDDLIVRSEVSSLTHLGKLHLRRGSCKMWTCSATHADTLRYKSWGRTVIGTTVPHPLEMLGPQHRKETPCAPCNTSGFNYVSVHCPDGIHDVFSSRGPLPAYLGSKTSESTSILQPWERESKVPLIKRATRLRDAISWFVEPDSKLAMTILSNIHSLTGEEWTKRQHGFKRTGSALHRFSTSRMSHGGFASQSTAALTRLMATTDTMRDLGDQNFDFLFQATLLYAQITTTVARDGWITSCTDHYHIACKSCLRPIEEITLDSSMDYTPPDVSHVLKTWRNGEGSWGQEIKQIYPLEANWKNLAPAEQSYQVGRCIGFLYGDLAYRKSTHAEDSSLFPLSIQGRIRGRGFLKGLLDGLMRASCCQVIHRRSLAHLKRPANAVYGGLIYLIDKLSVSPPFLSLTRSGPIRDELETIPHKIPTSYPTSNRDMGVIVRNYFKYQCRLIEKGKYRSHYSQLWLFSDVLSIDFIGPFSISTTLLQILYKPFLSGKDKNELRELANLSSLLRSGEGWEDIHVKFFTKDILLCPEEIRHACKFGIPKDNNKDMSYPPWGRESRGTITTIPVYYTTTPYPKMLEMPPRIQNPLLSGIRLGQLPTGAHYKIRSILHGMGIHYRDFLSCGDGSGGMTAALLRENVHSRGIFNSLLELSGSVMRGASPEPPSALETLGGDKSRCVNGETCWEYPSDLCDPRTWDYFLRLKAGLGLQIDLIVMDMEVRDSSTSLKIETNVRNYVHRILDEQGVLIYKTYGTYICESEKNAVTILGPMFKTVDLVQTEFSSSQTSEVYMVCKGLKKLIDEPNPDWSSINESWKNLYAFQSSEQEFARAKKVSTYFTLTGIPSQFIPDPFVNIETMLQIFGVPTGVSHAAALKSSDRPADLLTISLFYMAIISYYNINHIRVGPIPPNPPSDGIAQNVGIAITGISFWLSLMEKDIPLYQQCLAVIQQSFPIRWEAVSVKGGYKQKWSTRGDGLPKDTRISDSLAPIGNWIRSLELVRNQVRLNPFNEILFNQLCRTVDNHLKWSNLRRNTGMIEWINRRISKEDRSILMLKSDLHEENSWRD

VSV [13] = test system: VSV
VSV L protein = VSV L protein (Vesicular stomatitis Indiana virus, UniProt P03523); assay: biochemical; format: biochemical
Chain of VSV L protein (P03523 whole entry, looked up): as above

CHPV RNP = CHPV RNP (Chandipura virus, UniProt P13179); assay: biochemical
VSV [14] = assay: microbe, parasite or virus in culture; format: cell-based; conditions: Vesicular stomatitis virus, BHK-21, in Mesocricetus auratus, 24 h, read-out: % Inhibition Nuclear Condensation (Cell Imaging)
[15] = molecular target: VSV L protein (PRNTase domain) (Vesicular stomatitis Indiana virus, UniProt P03523); format: biochemical; conditions: at 10 µM
HPIV-3 RNP = HPIV-3 RNP (Human parainfluenza 3 virus, UniProt P12577); format: biochemical, Human parainfluenza virus 3; conditions: at 10 µM
VSV-AcGFP [16] = format: cell-based, Vesicular stomatitis virus in BHK-21 cells (hamster); conditions: 10 µM
VSV [17] = format: cell-based, Vesicular stomatitis virus in BHK-21 cells (hamster)
VSV [18] = assay: microbe, parasite or virus in culture; format: cell-based; conditions: Vesicular stomatitis virus, BHK-21, in Mesocricetus auratus, 24 h, read-out: % Inhibition Metabolic Shut-down (CCK Assay)
BHK-21 cells = conditions: at 100 µM
[19] = molecular target: CHPV RdRp (L and P proteins) (Chandipura virus, UniProt P13179); assay: biochemical; conditions: read-out: inhibition of CHPV AC synthesis
HeLa cells [20] = test system: HeLa cells; remark: listed apart in the source
VSV-AcGFP [21] = format: cell-based, Vesicular stomatitis virus in BHK-21 cells (hamster); conditions: 10 µM; remark: listed apart in the source

For `O=C(O)CN(CCN(CC(=O)O)CC(=O)O)CC(=O)O` [EDTA, reference compound], the “synthesis of LeRNA1–18 (pulse)” value [1] was “abolishes”.

With `NC(=O)c1ncn([C@@H]2O[C@H](CO)[C@@H](O)[C@H]2O)n1` [Ribavirin, reference compound] the “Anti-CHPV Activity SI (CC50/IC50)” value (CHPV [2]) was under 1, the IC50 (VSV [3]) was over 100 µM and the “Anti-HPIV-3 activity SI (CC50/IC50)” value (HPIV-3 [4]) was over 5. For the same compound, the CC50 (in vitro [5]) was over 100 µM, the IC50 (HPIV-3 [6]) was 21 µM and the IC50 (CHPV [7]) was over 100 µM. The CC50 (in vitro [8]) was 86 ± 0.5 µM, the “Cytotoxicity CC50” value (HeLa cells [9]) was > 1 0 0 µM and the IC50 (VSV [10]) was 15 ± 1 µM.

For `COc1ccc(C2CC(=O)Nc3cc(O)c(C)cc32)cc1Cn1cccn1` (stereo not shown) [VPI A], the “Anti-RABV activity SI (CC50/IC50)” value (RABV [11]) was over 4, the “Cytotoxicity CC50” value (NA cells) was > 1 0 0 µM and the IC50 (RABV [12]) was 26 µM. For the same compound, the IC50 (VSV RNP) was 0.81 ± 0.04 µM, the “VSV LeRNA synthesis” value (VSV RNP) was “represses” and the inhibition at 20 µM (VSV RNP) was 99%. The “synthesis of LeRNA1–18 (pulse)” value [1] was “inhibits”, the “Anti-CHPV Activity SI (CC50/IC50)” value (CHPV [2]) was over 13 and the IC50 (CHPV [2]; read-out: Anti-CHPV Activity IC50 (CHPV-induced metabolic shut-down)) was 7.9 ± 0.4 µM. The IC50 (VSV [3]) was 2 ± 0.1 µM, the “antiviral effects against HPIV-3” value (HPIV-3 [4]) was “neither of the compounds showed any antiviral effects” and the “VSV-induced cell rounding and detachment” value (VSV [13]) was “inhibited”. The IC50 (VSV [13]; read-out: Anti-VSV Activity IC50 (VSV-induced metabolic shut-down)) was 0.42 ± 0.02 µM, the “AC synthesis with the VSV L and P proteins” value (VSV L protein) was “inhibit” and the inhibition at 1 µM (VSV L protein; 1 µM, read-out: inhibition of AC synthesis with the VSV L protein alone) was 85%. For the same compound, the “AC synthesis with the VSV L and P proteins (Figure S4)” value (VSV L protein; 10 µM) was “strongest”, the inhibition at 10 µM (VSV L protein; 10 µM, read-out: inhibition of AC synthesis with the VSV L protein alone) was 100% and the IC50 (CHPV RNP) was 3.3 ± 0.4 µM. For the same compound, the inhibition at 17 µM (VSV [14]) was 98%, the CC50 (in vitro [5]) was over 100 µM and the “capping activity of the PRNTase domain in the VSV L protein” value [15] was “slightly reduced”. The “inhibition of in vitro mRNA synthesis of HPIV-3” value (HPIV-3 RNP) was “not”, the “step of VSV infection inhibited (time-of-addition)” value (VSV-AcGFP [16]) was “inhibits VSV infection at an early post-entry step” and the IC50 (CHPV [7]) was 8 µM. For the same compound, the CC50 (in vitro [8]) was over 100 µM, the “concentration that almost completely abolished VSV production” value (VSV [17]) was at least 12.5 µM and the inhibition at 17 µM (VSV [18]) was 105%. For the same compound, the “Cytotoxicity CC50” value (HeLa cells [9]) was > 1 0 0 µM, the “cytotoxic effects on BHK-21 cells” value (BHK-21 cells) was “little or no cytotoxic effects” and the inhibition at 1 µM ([19]; 1 µM) was 77%. For the same compound, the inhibition at 10 µM ([19]; 10 µM) was 97%, the IC50 (VSV [10]) was 0.4 µM and the “toxicity to HeLa cells” value (HeLa cells [20]) was “less toxic”. For the same compound, the “nuclear condensation and AcGFP expression in infected cells” value (VSV-AcGFP [21]) was “abrogate”.

With `Cc1cc2c(cc1O)NC(=O)CC2c1cc(C(C)(C)C)[nH]n1` (stereo not shown) [VPI B] the “inhibitory effect on RABV gene expression” value (RABV [11]) was “little or no inhibitory effect”, the “Cytotoxicity CC50” value (NA cells) was > 1 0 0 µM and the inhibition at 20 µM (VSV RNP) was 89%. For the same compound, the “Anti-CHPV Activity SI (CC50/IC50)” value (CHPV [2]) was over 9, the IC50 (VSV [3]) was 6 µM and the “antiviral effects against HPIV-3” value (HPIV-3 [4]) was “neither of the compounds showed any antiviral effects”. The “VSV-induced cell rounding and detachment” value (VSV [13]) was “inhibited”, the inhibition at 17 µM (VSV [14]) was 92% and the CC50 (in vitro [5]) was over 100 µM. For the same compound, the IC50 (CHPV [7]) was 11 ± 1 µM, the CC50 (in vitro [8]) was over 100 µM and the “concentration that almost completely abolished VSV production” value (VSV [17]) was at least 25 µM. The inhibition at 17 µM (VSV [18]) was 102%, the “Cytotoxicity CC50” value (HeLa cells [9]) was > 1 0 0 µM and the “cytotoxic effects on BHK-21 cells” value (BHK-21 cells) was “little or no cytotoxic effects”. The IC50 (VSV [10]) was 1 µM, the “toxicity to HeLa cells” value (HeLa cells [20]) was “less toxic” and the “nuclear condensation and AcGFP expression in infected cells” value (VSV-AcGFP [21]) was “abrogate”.

In the case of `Cc1cc2c(cc1O)NC(=O)CC2c1c[nH]nc1-c1ccc(F)cc1` (stereo not shown) [VPI C], the inhibition at 20 µM (VSV RNP) is reported as 72%, the inhibition at 17 µM (VSV [14]) is reported as 63% and the inhibition at 17 µM (VSV [18]) is reported as 58%.

Work on `Cc1cc2c(cc1O)NC(=O)CC2c1cc2ccccc2n1C` (stereo not shown) [VPI D] yielded an inhibition at 20 µM (VSV RNP) of 72%, an inhibition at 17 µM (VSV [14]) of 57% and an inhibition at 17 µM (VSV [18]) of 55%.

For `COc1cc2c(cc1C1CC(=O)Nc3cc(O)c(C)cc31)CCC2` (stereo not shown) [VPI E], the inhibition at 20 µM (VSV RNP) was 72%, the inhibition at 17 µM (VSV [14]) was 94% and the inhibition at 17 µM (VSV [18]) was 50%.

With `Cc1cc2c(cc1O)NC(=O)CC2c1ccc(-c2cc[nH]n2)o1` (stereo not shown) [VPI F] the “effect on VSV mRNA synthesis, in words” value (VSV RNP; at 20 µM) was “weak inhibitory effect”, the inhibition at 20 µM (VSV RNP) was 34% and the “AC synthesis with the VSV L and P proteins (Figure S4)” value (VSV L protein; 10 µM) was “weakest”. It also gave an inhibition at 17 µM (VSV [14]) of 69% and an inhibition at 17 µM (VSV [18]) of 48%.

`Cc1cc2c(cc1O)NC(=O)CC2c1ccc(Oc2ccccc2)cc1` (stereo not shown) [VPI G] gave an inhibition at 20 µM (VSV RNP) of 68%, an inhibition at 17 µM (VSV [14]) of 54% and an inhibition at 17 µM (VSV [18]) of 46%.

`COc1cc2c(cc1C1CC(=O)Nc3cc(O)c(C)cc31)OCCCO2` (stereo not shown) [VPI H] showed an inhibition at 20 µM (VSV RNP) of 73%, an inhibition at 17 µM (VSV [14]) of 53% and an inhibition at 17 µM (VSV [18]) of 34%.
